Source: the kinase profiling compilation of Christmann-Franck et al. (2016)

How the values were obtained:
Assay in all cases: radiometric filter-binding kinase assay, Kinase HotSpot
Details in all cases: compound 0.5 µM; ATP 10 µM
[1] = target: IRAK4 (human) (UniProt Q9NWZ3)
[2] = target: STK39 (human) (UniProt Q9UEW8)
[3] = target: MYLK (human) (UniProt Q15746)
[4] = target: NEK1 (human) (UniProt Q96PY6)
[5] = target: EPHA3 (human) (UniProt P29320)
[6] = target: PRKD3 (human) (UniProt O94806)
[7] = target: MARK1 (human) (UniProt Q9P0L2)
[8] = target: CLK4 (human) (UniProt Q9HAZ1)
[9] = target: WEE1 (human) (UniProt P30291)
[10] = target: FGFR2 (human) (UniProt P21802)
[11] = target: PLK3 (human) (UniProt Q9H4B4)
[12] = target: CAMK1G (human) (UniProt Q96NX5)
[13] = target: MKNK2 (human) (UniProt Q9HBH9)
Sequence of MKNK2 (human) (Q9HBH9 whole entry, looked up): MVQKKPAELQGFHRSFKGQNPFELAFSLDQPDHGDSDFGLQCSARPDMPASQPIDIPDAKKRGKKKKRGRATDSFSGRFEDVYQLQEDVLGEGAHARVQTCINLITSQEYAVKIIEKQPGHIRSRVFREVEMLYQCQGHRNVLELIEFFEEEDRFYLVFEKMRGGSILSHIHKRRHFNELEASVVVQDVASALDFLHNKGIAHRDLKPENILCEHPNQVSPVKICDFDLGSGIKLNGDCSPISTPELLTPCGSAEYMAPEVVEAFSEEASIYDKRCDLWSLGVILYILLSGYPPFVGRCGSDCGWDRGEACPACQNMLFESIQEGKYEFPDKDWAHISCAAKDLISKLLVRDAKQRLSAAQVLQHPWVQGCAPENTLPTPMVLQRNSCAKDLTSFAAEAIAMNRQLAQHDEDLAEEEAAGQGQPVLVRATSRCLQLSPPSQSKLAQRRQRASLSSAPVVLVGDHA

[14] = target: EPHB3 (human) (UniProt P54753)
[15] = target: PAK7 (human) (UniProt Q9P286)
[16] = target: PRKCG (human) (UniProt P05129)
[17] = target: CAMK2D (human) (UniProt Q13557)
[18] = target: SIK2 (human) (UniProt Q9H0K1)
[19] = target: HCK (human) (UniProt P08631)
[20] = target: CDK9 CCNT1 (human) (UniProt P50750+O60563)
[21] = target: ACVR1B (human) (UniProt P36896)
[22] = target: DAPK3 (human) (UniProt O43293)
[23] = target: PRKX (human) (UniProt P51817)
[24] = target: NEK2 (human) (UniProt P51955)
[25] = target: STK4 (human) (UniProt Q13043)
[26] = target: TAOK1 (human) (UniProt Q7L7X3)
[27] = target: MST4 (human) (UniProt Q9P289)
Sequence of MST4 (human) (Q9P289 whole entry, looked up): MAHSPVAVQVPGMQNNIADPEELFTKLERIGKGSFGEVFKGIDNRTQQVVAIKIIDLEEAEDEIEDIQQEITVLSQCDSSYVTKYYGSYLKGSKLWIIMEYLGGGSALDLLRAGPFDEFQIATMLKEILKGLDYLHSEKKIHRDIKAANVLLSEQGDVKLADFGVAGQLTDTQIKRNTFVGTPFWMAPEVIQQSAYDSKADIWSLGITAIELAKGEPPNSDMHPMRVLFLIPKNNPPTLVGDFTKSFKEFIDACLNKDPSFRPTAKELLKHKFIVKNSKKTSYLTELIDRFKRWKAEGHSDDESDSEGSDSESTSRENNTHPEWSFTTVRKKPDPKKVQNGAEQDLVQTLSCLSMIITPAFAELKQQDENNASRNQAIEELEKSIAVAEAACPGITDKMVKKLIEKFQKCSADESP

[28] = target: MLTK (human) (UniProt Q9NYL2)
Sequence of MLTK (human) (Q9NYL2 whole entry, looked up): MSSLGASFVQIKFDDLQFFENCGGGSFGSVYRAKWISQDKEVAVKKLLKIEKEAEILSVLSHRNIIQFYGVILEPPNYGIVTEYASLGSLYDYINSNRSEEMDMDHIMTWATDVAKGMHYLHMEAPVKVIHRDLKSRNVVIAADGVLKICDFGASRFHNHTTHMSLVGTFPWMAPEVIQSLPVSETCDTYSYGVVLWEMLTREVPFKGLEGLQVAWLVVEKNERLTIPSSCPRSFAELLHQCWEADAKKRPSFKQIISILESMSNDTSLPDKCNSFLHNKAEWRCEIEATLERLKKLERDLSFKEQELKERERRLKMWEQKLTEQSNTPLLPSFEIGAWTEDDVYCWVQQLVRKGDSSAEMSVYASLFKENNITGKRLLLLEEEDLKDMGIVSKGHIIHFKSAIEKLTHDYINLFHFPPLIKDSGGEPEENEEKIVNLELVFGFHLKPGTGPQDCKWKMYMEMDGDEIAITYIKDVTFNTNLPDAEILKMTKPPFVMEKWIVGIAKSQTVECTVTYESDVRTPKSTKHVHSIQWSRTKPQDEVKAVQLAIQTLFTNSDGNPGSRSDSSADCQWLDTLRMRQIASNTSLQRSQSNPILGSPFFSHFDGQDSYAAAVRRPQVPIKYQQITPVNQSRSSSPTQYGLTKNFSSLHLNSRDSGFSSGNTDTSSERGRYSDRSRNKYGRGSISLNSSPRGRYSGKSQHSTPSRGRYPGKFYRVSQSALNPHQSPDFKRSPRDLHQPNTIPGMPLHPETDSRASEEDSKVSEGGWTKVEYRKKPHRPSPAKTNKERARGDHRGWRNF

[29] = target: NLK (human) (UniProt Q9UBE8)
Sequence of NLK (human) (Q9UBE8 whole entry, looked up): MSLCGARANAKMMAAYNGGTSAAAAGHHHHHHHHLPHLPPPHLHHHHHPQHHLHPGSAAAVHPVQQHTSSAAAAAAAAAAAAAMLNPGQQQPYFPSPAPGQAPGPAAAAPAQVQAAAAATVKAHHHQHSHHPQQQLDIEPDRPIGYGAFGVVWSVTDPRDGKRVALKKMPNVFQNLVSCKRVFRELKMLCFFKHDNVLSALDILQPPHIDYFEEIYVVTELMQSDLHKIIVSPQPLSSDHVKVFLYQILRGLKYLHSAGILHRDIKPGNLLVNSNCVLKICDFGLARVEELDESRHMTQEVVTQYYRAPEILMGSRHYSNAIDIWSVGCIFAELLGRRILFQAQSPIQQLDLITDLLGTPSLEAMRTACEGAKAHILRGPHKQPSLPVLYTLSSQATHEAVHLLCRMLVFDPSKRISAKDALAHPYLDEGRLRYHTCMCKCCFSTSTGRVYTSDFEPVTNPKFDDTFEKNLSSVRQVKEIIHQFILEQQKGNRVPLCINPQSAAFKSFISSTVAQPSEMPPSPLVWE

[30] = target: TGFBR1 (human) (UniProt P36897)
[31] = target: MST1R (human) (UniProt Q04912)
[32] = target: YES1 (human) (UniProt P07947)
Sequence of YES1 (human) (P07947 whole entry, looked up): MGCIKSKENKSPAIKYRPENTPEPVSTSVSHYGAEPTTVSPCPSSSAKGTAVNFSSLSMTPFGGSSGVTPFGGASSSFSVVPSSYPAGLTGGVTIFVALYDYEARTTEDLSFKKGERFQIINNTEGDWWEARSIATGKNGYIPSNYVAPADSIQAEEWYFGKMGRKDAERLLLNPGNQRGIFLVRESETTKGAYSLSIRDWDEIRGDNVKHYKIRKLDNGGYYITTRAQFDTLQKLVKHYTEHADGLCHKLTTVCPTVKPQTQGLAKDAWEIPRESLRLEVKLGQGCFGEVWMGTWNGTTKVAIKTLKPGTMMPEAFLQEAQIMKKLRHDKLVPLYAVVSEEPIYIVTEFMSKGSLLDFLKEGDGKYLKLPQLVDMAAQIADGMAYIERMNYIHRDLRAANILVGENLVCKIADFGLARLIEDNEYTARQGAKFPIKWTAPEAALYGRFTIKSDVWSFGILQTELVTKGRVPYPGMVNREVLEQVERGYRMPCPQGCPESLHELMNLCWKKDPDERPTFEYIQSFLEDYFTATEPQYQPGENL

[33] = target: EPHB4 (human) (UniProt P54760)
[34] = target: AURKB (human) (UniProt Q96GD4)
[35] = target: SGK3 (human) (UniProt Q96BR1)
[36] = target: PIM2 (human) (UniProt Q9P1W9)
[37] = target: CHEK1 (human) (UniProt O14757)
[38] = target: CDK4 CCND3 (human) (UniProt P30281+P11802)
[39] = target: ERBB4 (human) (UniProt Q15303)
Sequence of ERBB4 (human) (Q15303 whole entry, looked up): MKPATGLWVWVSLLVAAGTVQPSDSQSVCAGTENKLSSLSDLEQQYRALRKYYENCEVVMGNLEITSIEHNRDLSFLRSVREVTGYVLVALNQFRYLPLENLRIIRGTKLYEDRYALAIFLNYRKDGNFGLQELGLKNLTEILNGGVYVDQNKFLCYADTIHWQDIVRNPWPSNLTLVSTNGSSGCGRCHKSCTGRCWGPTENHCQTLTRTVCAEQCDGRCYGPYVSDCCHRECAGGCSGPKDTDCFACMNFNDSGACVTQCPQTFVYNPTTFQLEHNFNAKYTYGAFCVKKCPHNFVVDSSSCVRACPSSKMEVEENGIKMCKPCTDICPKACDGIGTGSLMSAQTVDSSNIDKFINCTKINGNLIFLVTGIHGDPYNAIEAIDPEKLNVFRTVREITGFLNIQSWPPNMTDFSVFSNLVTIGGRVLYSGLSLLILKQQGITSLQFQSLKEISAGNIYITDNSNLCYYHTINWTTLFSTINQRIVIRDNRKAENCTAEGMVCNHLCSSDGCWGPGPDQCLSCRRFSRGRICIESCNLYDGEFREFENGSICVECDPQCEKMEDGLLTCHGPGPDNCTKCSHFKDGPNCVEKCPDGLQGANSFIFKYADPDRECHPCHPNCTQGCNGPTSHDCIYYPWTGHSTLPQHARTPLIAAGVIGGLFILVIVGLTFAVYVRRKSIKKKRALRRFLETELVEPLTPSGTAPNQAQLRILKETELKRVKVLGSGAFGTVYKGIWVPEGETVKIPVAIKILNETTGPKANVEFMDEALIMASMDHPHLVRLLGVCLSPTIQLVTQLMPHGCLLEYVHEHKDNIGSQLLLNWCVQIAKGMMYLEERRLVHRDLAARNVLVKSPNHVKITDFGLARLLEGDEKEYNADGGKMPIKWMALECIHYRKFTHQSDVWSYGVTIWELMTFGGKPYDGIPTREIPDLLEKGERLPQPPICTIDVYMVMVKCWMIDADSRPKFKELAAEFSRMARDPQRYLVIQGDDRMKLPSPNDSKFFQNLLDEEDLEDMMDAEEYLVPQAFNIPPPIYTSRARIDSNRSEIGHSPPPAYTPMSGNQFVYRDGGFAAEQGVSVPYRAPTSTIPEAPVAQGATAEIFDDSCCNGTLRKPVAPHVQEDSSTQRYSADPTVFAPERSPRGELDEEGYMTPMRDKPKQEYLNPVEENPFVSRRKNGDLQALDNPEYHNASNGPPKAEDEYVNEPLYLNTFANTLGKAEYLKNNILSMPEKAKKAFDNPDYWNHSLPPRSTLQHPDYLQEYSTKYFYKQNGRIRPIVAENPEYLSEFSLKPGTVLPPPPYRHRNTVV

[40] = target: PRKCA (human) (UniProt P17252)
[41] = target: ROS1 (human) (UniProt P08922)

Sequence of EPHA3 (human) (P29320 whole entry, looked up): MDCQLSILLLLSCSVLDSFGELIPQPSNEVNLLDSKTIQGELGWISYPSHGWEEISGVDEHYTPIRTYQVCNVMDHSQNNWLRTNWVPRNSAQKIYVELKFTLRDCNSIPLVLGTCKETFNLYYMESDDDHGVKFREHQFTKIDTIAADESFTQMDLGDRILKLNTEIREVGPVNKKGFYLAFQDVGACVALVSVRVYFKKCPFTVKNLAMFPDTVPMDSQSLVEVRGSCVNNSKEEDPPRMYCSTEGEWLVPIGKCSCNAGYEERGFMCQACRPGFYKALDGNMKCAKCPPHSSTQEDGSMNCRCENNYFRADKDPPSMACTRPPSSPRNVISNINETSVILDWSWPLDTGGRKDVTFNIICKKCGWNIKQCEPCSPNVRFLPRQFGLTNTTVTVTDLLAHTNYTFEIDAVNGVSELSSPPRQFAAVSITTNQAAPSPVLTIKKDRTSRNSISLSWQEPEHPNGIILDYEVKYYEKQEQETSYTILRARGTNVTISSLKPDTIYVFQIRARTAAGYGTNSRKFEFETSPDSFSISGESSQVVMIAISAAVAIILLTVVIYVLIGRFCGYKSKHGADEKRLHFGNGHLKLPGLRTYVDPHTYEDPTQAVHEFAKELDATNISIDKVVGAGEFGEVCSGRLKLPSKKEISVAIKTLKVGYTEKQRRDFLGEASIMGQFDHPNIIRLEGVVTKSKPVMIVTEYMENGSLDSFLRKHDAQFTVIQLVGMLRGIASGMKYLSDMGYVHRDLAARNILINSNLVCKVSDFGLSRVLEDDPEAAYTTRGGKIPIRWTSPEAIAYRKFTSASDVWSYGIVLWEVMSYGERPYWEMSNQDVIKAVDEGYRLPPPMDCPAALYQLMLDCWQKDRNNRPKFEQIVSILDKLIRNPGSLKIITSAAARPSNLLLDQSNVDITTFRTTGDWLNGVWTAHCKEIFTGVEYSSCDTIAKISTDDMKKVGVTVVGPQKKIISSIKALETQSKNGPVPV

O=C1Cc2c([nH]c3ccc(Br)cc23)-c2ccccc2N1
residual activity [1]: 88.3%
residual activity [2]: 90.1%
residual activity [3]: 96.3%
residual activity [4]: 95.4%
residual activity [5]: 96%
residual activity [6]: 95.5%
residual activity [7]: 88.3%
residual activity [8]: 91.1%
residual activity [9]: 87.7%
residual activity [10]: 100%
residual activity [11]: 96%
residual activity [12]: 97.4%
residual activity [13]: 102%
residual activity [14]: 92.3%
residual activity [15]: 85.1%
residual activity [16]: 93.8%
residual activity [17]: 91.1%
residual activity [18]: 63.5%
residual activity [19]: 85.5%
residual activity [20]: 31.3%
residual activity [21]: 99.8%
residual activity [22]: 111%
residual activity [23]: 100%
residual activity [24]: 87.1%
residual activity [25]: 81.8%
residual activity [26]: 99.4%
residual activity [27]: 108%
residual activity [28]: 88.5%
residual activity [29]: 98.7%
residual activity [30]: 97.7%
residual activity [31]: 93.6%
residual activity [32]: 59.1%
residual activity [33]: 100%
residual activity [34]: 84.3%
residual activity [35]: 107%
residual activity [36]: 104%
residual activity [37]: 89%
residual activity [38]: 89%
residual activity [39]: 101%
residual activity [40]: 98.6%
residual activity [41]: 83.6%

COc1ccc(CNC(=O)Nc2ncc([N+](=O)[O-])s2)cc1
residual activity [1]: 101%
residual activity [2]: 96.4%
residual activity [3]: 94.1%
residual activity [4]: 94.3%
residual activity [5]: 111%
residual activity [6]: 93.4%
residual activity [7]: 106%
residual activity [8]: 92.8%
residual activity [9]: 95.2%
residual activity [10]: 97.4%
residual activity [11]: 101%
residual activity [12]: 99.6%
residual activity [13]: 95.7%
residual activity [14]: 101%
residual activity [15]: 95.4%
residual activity [16]: 99.8%
residual activity [17]: 98.3%
residual activity [18]: 89.4%
residual activity [19]: 96.7%
residual activity [20]: 88.1%
residual activity [21]: 102%
residual activity [22]: 106%
residual activity [23]: 72.1%
residual activity [24]: 99.1%
residual activity [25]: 99.8%
residual activity [26]: 101%
residual activity [27]: 113%
residual activity [28]: 101%
residual activity [29]: 102%
residual activity [30]: 95.8%
residual activity [31]: 98.4%
residual activity [32]: 96.1%
residual activity [33]: 100%
residual activity [34]: 97.1%
residual activity [35]: 96.9%
residual activity [36]: 94.5%
residual activity [37]: 98%
residual activity [38]: 94.4%
residual activity [39]: 95.2%
residual activity [40]: 61.9%
residual activity [41]: 100%
